Experimental data: US8119569B2, “Benzoylpyrazole compounds, process for their production and herbicides containing them” (Ishihara Sangyo Kaisha, Ltd., priority 2006, dated 2012)

Key:
Assay type in all cases: in vivo
[1] = tested on: velvetleaf (Abutilon theophrasti MEDIC.); experiment: Test Example 3: foliar treatment, comparison with reference compounds; details: 3.3 to 4.3 leaf stage; for inhibition at 15 g/ha: Abutilon theophrasti, 22nd day after application, read-out: Growth inhibition rate (%) (22nd day after application) Velvet leaf
Text: (§1) Upland field soil was put into a 1/1,000,000 hectare pot, and seeds of various plants were sown. […] The spray solutions thus prepared were applied for foliar treatment by a small sprayer.

corn (Zea mays L.) [2] = experiment: as above; details: 4.0 to 4.3 leaf stage, crop
Text: as §1

[3] = tested on: green foxtail (Setaria viridis L.); experiment: as above; details: 4.0 to 4.5 leaf stage; for inhibition at 3.5 g/ha / inhibition at 7 g/ha: Setaria viridis, 17th day after application, read-out: Growth inhibition rate (%) (17th day after application) Green foxtail
Text: as §1

[4] = tested on: guineagrass (Panicum maximum Jacq.); experiment: as above; details: 3.5 to 4.3 leaf stage; for inhibition at 3.5 g/ha: Megathyrsus maximus, 18th day after application, read-out: Growth inhibition rate (%) (18th day after application) Guineagrass
Text: as §1

[5] = tested on: velvetleaf (Abutilon theophrasti MEDIC.); experiment: Test Example 1: foliar treatment, upland pot; details: 21st day after application
Text: Upland field soil was put into a 1/170,000 hectare pot, and seeds of various plants were sown. […] The spray solutions thus prepared were applied for foliar treatment by a small sprayer.

[6] = tested on: rice (Oryza sativa L.) (var.: Nihonbare); experiment: Test Example 4: paddy field pot, water application, transplanted rice; details: 63 g/ha, 21st day after application, crop
Text: (§2) Paddy field soil was put into a 1/1,000,000 hectare pot, and seeds of barnyardgrass (Echinochloa oryzicola vasing.) and Japanese bulrush (Scirpus juncoides) were sown and lightly covered with soil. Then, pot was left to stand in a greenhouse in a state irrigated to a water depth of from 0.5 to 1 cm, and next day or two days later, tubers of Japanese ribbon waparo (Sagittaria pygmaea) were planted. Then, the irrigated water depth was maintained to be from 3 to 4 cm, and when barnyardgrass and Japanese bulrush reached 0.5 leaf stage, and Japanese ribbon waparo reached primary leaf stage, a water diluted solution of a wettable powder or an emulsifieable concentrate of the compound of the present invention prepared in accordance with a conventional preparation method, was uniformly dropwise applied by a pipette so that the amount of active ingredients would be a prescribed amount. Further, paddy field soil was put into a 1/1,000,000 pot, followed by soil puddling to an irrigated water depth of from 3 to 4 cm. Next day, rice (Oryza sativa L.) (var.: Nihonbare) of two leaf stage was transplanted in a transplantation depth of 3 cm. On the 4th day after transplantation, the compound of the present invention was applied in the same manner as described above.

[7] = tested on: prickly sida (Sida spinosa L.); experiment: Test Example 1: foliar treatment, upland pot; details: 21st day after application
Text: (§3) Upland field soil was put into a 1/170,000 hectare pot, and seeds of various plants were sown. When the respective plants reached predetermined leaf stage ((1) barnyardgrass (Echinochloa crus-galli L.): 1.0 to 3.3 leaf stage, (2) crabgrass (Digitaria sanguinalis L.): 1.2 to 3.0 leaf stage, (3) green foxtail (Setaria viridis L.): 1.5 to 3.3 leaf stage, (4) redroot pigweed (Amaranthus retroflexus L.): 0.1 to 2.0 leaf stage, (5) prickly sida (Sida spinosa L.): cotyledon stage to 2.0 leaf stage, (6) velvetleaf (Abutilon theophrasti MEDIC.): 0.1 to 2.0 leaf stage, (7) rice (Oryza sativa L.): 1.3 to 3.0 leaf stage, (8) corn (Zea mays L.): 2.5 to 3.4 leaf stage, and (9) soybean (Glycine max Merr.): primary leaf stage to 0.3 leaf stage), wettable powders or emulsifiable concentrates of the compounds of the present invention prepared in accordance with a conventional preparation method, were weighed so that the active ingredients became the prescribed amounts, and diluted with water in an amount corresponding to 500 liter per 1 hectare (containing 0.1 vol % of an agricultural spreader (“KUSARINOH”, manufactured by NIHON NOHYAKU CO., LTD.)). The spray solutions thus prepared were applied for foliar treatment by a small sprayer.

[8] = tested on: barnyardgrass (Echinochloa crus-galli L.); experiment: Test Example 1: foliar treatment, upland pot; details: 21st day after application
Text: as §3

[9] = tested on: redroot pigweed (Amaranthus retroflexus L.); experiment: Test Example 1: foliar treatment, upland pot; details: 21st day after application
Text: as §3

corn (Zea mays L.) [10] = experiment: Test Example 1: foliar treatment, upland pot; details: 21st day after application, crop
Text: as §3

[11] = tested on: soybean (Glycine max Merr.); experiment: Test Example 1: foliar treatment, upland pot; details: 21st day after application, crop
Text: as §3

[12] = tested on: green foxtail (Setaria viridis L.); experiment: Test Example 1: foliar treatment, upland pot; details: 21st day after application
Text: as §3

rice (Oryza sativa L.) [13] = experiment: Test Example 1: foliar treatment, upland pot; details: 21st day after application, crop
Text: as §3

[14] = tested on: crabgrass (Digitaria sanguinalis L.); experiment: Test Example 1: foliar treatment, upland pot; details: 21st day after application
Text: as §3

[15] = tested on: prickly sida (Sida spinosa L.); experiment: Test Example 2: soil application on the day after sowing; details: 250 g/ha, 19th to 22nd day after application
Text: (§4) Upland field soil was put into a 1/170,000 hectare pot, and seeds of various plants (barnyardgrass (Echinochloa crus-galli L.), crabgrass (Digitaria sanguinalis L.), green foxtail (Setaria viridis L.), redroot pigweed (Amaranthus retroflexus L.), prickly sida (Sida spinosa L.), velvetleaf (Abutilon theophrasti MEDIC.), rice (oryza sativa L.), corn (Zea mays L.) and soybean (Glycine max Merr.)) were sown. On the day after sowing, wettable powders or emulsifiable concentrates of the compounds of the present invention prepared in accordance with a conventional preparation method, were weighed so that the active ingredients became the prescribed amounts, and diluted with water in an amount corresponding to 500 liter per 1 hectare, followed by soil application with a small sprayer.

[16] = tested on: barnyardgrass (Echinochloa crus-galli L.); experiment: as above; details: 250 g/ha, 19th to 22nd day after application
Text: as §4

[17] = tested on: velvetleaf (Abutilon theophrasti MEDIC.); experiment: as above; details: 250 g/ha, 19th to 22nd day after application
Text: as §4

[18] = tested on: redroot pigweed (Amaranthus retroflexus L.); experiment: as above; details: 250 g/ha, 19th to 22nd day after application
Text: as §4

corn (Zea mays L.) [19] = experiment: as above; details: 250 g/ha, 19th to 22nd day after application, crop
Text: as §4

[20] = tested on: soybean (Glycine max Merr.); experiment: as above; details: 250 g/ha, 19th to 22nd day after application, crop
Text: as §4

[21] = tested on: green foxtail (Setaria viridis L.); experiment: as above; details: 250 g/ha, 19th to 22nd day after application
Text: as §4

rice (Oryza sativa L.) [22] = experiment: as above; details: 250 g/ha, 19th to 22nd day after application, crop
Text: as §4

[23] = tested on: crabgrass (Digitaria sanguinalis L.); experiment: as above; details: 250 g/ha, 19th to 22nd day after application
Text: as §4

[24] = tested on: Japanese bulrush (Scirpus juncoides); experiment: Test Example 4: paddy field pot, water application; details: 63 g/ha, 14th day after application
Text: as §2

[25] = tested on: barnyardgrass (Echinochloa oryzicola vasing.); experiment: Test Example 4: paddy field pot, water application; details: 63 g/ha, 14th day after application
Text: as §2

[26] = tested on: Japanese ribbon waparo (Sagittaria pygmaea); experiment: Test Example 4: paddy field pot, water application; details: 63 g/ha, 14th day after application
Text: as §2

SMILES	Growth inhibition rate (%) Rice [6]	Growth inhibition rate (%) Prickly sida ([7]; 7 g/ha)	Growth inhibition rate (%) Barnyardgrass ([8]; 7 g/ha)	Growth inhibition rate (%) Redroot pigweed ([9]; 7 g/ha)	Growth inhibition rate (%) Corn (corn (Zea mays L.) [10]; 7 g/ha)	Growth inhibition rate (%) Soybean ([11]; 7 g/ha)	Growth inhibition rate (%) Green foxtail ([12]; 7 g/ha)	Growth inhibition rate (%) Rice (rice (Oryza sativa L.) [13]; 7 g/ha)	Growth inhibition rate (%) Crabgrass ([14]; 7 g/ha)	Growth inhibition rate (%) Prickly sida [15]	Growth inhibition rate (%) Barnyardgrass [16]	Growth inhibition rate (%) Velvetleaf [17]	Growth inhibition rate (%) Redroot pigweed [18]	Growth inhibition rate (%) Corn (corn (Zea mays L.) [19])	Growth inhibition rate (%) Soybean [20]	Growth inhibition rate (%) Green foxtail [21]	Growth inhibition rate (%) Rice (rice (Oryza sativa L.) [22])	Growth inhibition rate (%) Crabgrass [23]	Growth inhibition rate (%) Japanese bulrush [24]	Growth inhibition rate (%) Barnyardgrass [25]	further results
CCOC(=O)OC(C)Oc1c(C(=O)c2ccc(S(C)(=O)=O)c(OCCOC)c2C)cnn1C (stereo not shown) [Compound No. 2, 1-(4-(3-(2-methoxyethoxy)-2-methyl-4-(methylsulfonyl)benzoyl)-1-methyl-1H-pyrazol-5-yloxy)ethyl ethylcarbonate]	50%	40%	100%	100%	0%	80%	95%	80%	95%	70%	100%	60%	100%	0%	0%	100%	98%	100%	60%	100%	Growth inhibition rate (%) (22nd day after application) Velvet leaf ([1]; 15 g/ha): 94%; Growth inhibition rate (%) (21st day after application) Corn (corn (Zea mays L.) [2]; 120 g/ha): 4%; Growth inhibition rate (%) (17th day after application) Green foxtail ([3]; 3.5 g/ha): 93%; Growth inhibition rate (%) (17th day after application) Green foxtail ([3]; 7 g/ha): 98%; Growth inhibition rate (%) (18th day after application) Guineagrass ([4]; 3.5 g/ha): 90%; Growth inhibition rate (%) Velvetleaf ([5]; 63 g/ha): 100%; Growth inhibition rate (%) Prickly sida ([7]; 63 g/ha): 85%; Growth inhibition rate (%) Barnyardgrass ([8]; 63 g/ha): 100%; Growth inhibition rate (%) Redroot pigweed ([9]; 63 g/ha): 100%; Growth inhibition rate (%) Corn (corn (Zea mays L.) [10]; 63 g/ha): 0%; Growth inhibition rate (%) Soybean ([11]; 63 g/ha): 98%; Growth inhibition rate (%) Green foxtail ([12]; 63 g/ha): 100%; Growth inhibition rate (%) Rice (rice (Oryza sativa L.) [13]; 63 g/ha): 70%; Growth inhibition rate (%) Crabgrass ([14]; 63 g/ha): 100%; Growth inhibition rate (%) Japanese ribbon waparo [26]: 95%
CCn1ncc(C(=O)c2ccc(S(C)(=O)=O)c(OCCOC)c2Cl)c1O [Reference Compound 1]	–	–	–	–	–	–	–	–	–	–	–	–	–	–	–	–	–	–	–	–	inhibition at 15 g/ha [1]: 20%; inhibition at 3.5 g/ha ([3]; 3.5 g/ha): 35%; inhibition at 7 g/ha ([3]; 7 g/ha): 55%; inhibition at 3.5 g/ha [4]: 0%
COCCOc1c(S(C)(=O)=O)ccc(C(=O)c2cnn(C(C)C)c2O)c1Cl [Reference Compound 2]	–	–	–	–	–	–	–	–	–	–	–	–	–	–	–	–	–	–	–	–	inhibition at 15 g/ha [1]: 40%; inhibition at 120 g/ha (corn (Zea mays L.) [2]; Zea mays, 21st day after application, read-out: Growth inhibition rate (%) (21st day after application) Corn): 28%; inhibition at 3.5 g/ha ([3]; 3.5 g/ha): 30%; inhibition at 7 g/ha ([3]; 7 g/ha): 45%; inhibition at 3.5 g/ha [4]: 0%
CCOC(=O)OC(C)Oc1c(C(=O)c2ccc(S(C)(=O)=O)c(OCCOC)c2C)c(C)nn1C (racemic) [compound 11]	60%	10%	90%	80%	0%	70%	90%	80%	90%	40%	100%	70%	100%	0%	20%	100%	100%	100%	100%	98%	Growth inhibition rate (%) Velvetleaf ([5]; 7 g/ha): 60%; Growth inhibition rate (%) Japanese ribbon waparo [26]: 60%
COCCOc1c(S(C)(=O)=O)ccc(C(=O)c2cnn(C)c2OC(C)OC(=O)OC(C)C)c1C (racemic) [compound 4]	50%	40%	100%	90%	0%	90%	100%	30%	90%	90%	100%	70%	95%	0%	0%	95%	90%	100%	95%	100%	Growth inhibition rate (%) Velvetleaf ([5]; 7 g/ha): 98%; Growth inhibition rate (%) Japanese ribbon waparo [26]: 90%
